Experiment [1] deals with ID8agg tumors. The experiment is classed as in vivo, mouse. The text has this: Mice and in vivo treatments: Wild-type (WT) C57BL/6 mice NSG were purchased from Jackson Labs (Bar Harbor, ME), bred in our animal facility and used at 7-20 weeks old. All mice were given ad libitum water and food and housed under specific pathogen-free conditions. Mice used here were matched for sex and age in each experiment. 1×10^5 control or PD-L1^KOB16 cells were given subcutaneously (SQ, both sexes). 4×10^6 control or PD-L1^lo ID8agg cells in log growth phase were given intraperitoneally (females only). B16 tumor growth was measured with Vernier calipers and volume was calculated as (length×width^2)/2. Intraperitoneal ID8agg tumor growth was determined by IVIS Lumina Imaging System (Perkin Elmer; Waltham, MA) 15 minutes after i.p. injection of 3 mg of PBS-dissolved d-luciferin K+ (Gold Biotechnology; St. Louis, MO) with 30 second exposures, medium binning, and F/stop=1. Identical regions of interest were drawn over each subject's abdomen and average radiance (photons/see/cm2/sr) was quantified with Living Image software version 4.2. Body weight was measured every week for PD-L1^lo ID8agg mice as a surrogate for tumor growth, and tumors were weighed at end-experiment in confirmation. Survival was determined as >1500 mm^3 for SQ tumors and distress or >20% mouse weight gain for PD-L1^lo ID8agg tumors. Intraperitoneal injection of chlorambucil was given at indicated doses (optimized for each tumor and treatment condition in preliminary assessments not shown) for 3 treatment cycles starting 7 days after tumor cell challenge. Each chlorambucil cycle was 5 consecutive days of a single injection followed by two days of rest. αPD-L1 (clone 10F.9G2) or respective isotype control was injected intraperitoneally at 100 μg/mouse every 5 days starting on day 7 after tumor challenge for times indicated.

Experiment [2] concerns mTORC1. Nature of the experiment: Western blots for mTORC1 pathway and LC3 autophagy. The class given is cell-based. On the procedure:
(§1) FIGS. 40A-C: CAMB suppresses mTORC1 signals and reduces TIC numbers. FIG. 40A, Western blots for proteins in the mTORC1 pathway. Cells were treated with chlorambucil as indicated concentration for 48 hours. FIG. 40B, Western blot for LC3I/II to assess autophagy in cell lysates treated±chlorambucil at indicated concentrations. FIG. 40C, Percent of ALDH^hi TIC by flow cytometry of ES2 cells cultured±chlorambucil. Percent CD44^+CD24^+ ID8agg TIC and CD44^+CD133^+CD24^+ B16 TIC detected by flow cytometry.
Western blotting and immunoprecipitation: To prepare whole cell lysates, cells were harvested and lysed in RIPA (radioimmunoprecipitation assay) buffer plus 1 mM phenylmethylsulphonyl fluoride and Halt protease/phosphatase inhibitor cocktail (Thermo Scientific) at 4° C. Protein concentrations were measured by BCA Protein Assay Kit (Thermo Scientific). Protein was run on precast 4-15% sodium dodecyl sulfate polyacrylamide gels (Bio-Rad), transferred to polyvinylidene fluoride membranes (GE Water and Process Technologies), and then blocked in 5% non-fat milk for 1 hour at room temperature. The membranes were then incubated with 1:1000 diluted primary antibodies against indicated proteins (Cell Signaling). Specific antibody binding was detected by chemiluminescence using Western Lightening Plus regent (Perkin Elmer). Cells for (co) immunoprecipitation experiments were seeded in 15-cm dishes and cultured as described, using 6 million cells per immunoprecipitation reaction. For protein ubiquitination, cells were lysed in denaturing buffer (50 mM Tris-HCl, 0.5 mM EDTA and 1% SDS) followed by heating at 95° C. for 10 minutes and then quenched with 9 volumes of quenching buffer (0.5% Triton X-100, 20 mM Tris-HCl (pH 8.0), 137 mM NaCl, 10% glycerol, 2 mM EDTA). Protease inhibitor cocktail (Roche) was added fresh to all buffers. Cell lysates were incubated on a rotator for 30 minutes at 4° C., and then centrifuged at 20,000 g for 15 minutes at 4° C. Supernatants were subsequently incubated with anti-PD-L1 antibody overnight and processed using Dynabeads Protein G for Immunoprecipitation (Thermo Fisher Scientific). The final eluate was processed and Western blotting was performed.

The test system of experiment [3] is ES2 cells. Put plainly: Tumor-initiating cell (TIC) flow cytometry, ES2 cells. The class given is cell-based, human. On the procedure: as §1
(§2) Flow cytometry: Mice were sacrificed by cervical dislocation after induction of deep isoflurane anesthesia. ID8agg tumors were collected and cells were stained as described (Derup et al., 2020) using LSR II hardware and analyzed by FACS Diva (BD Bioscience) or Flow Jo software (Flow Jo, LLC). Anti-mouse (clone 10F.9G2) and human (clone 29E.2A3) PD-L1 [both PE/Cy7, Cat #124314 (mouse) 329718 (human)] were matched with isotype control. Apoptosis assessment used Annexin V and propidium iodide (Thermo Scientific) per manufacturer instruction.

The subject of experiment [4] is B16 cells. Nature of the experiment: Tumor-initiating cell (TIC) flow cytometry, B16 cells. The experiment is classed as cell-based, mouse. As for the experimental part: as §1, §2

“Also recorded” adds a separate entry of the source.

Consider `O=C(O)CCCc1ccc(N(CCCl)CCCl)cc1` [chlorambucil], for which the “sensitization of ID8agg to αPD-L1” value in experiment [1] (CAMB dose ineffective as a single agent) was “sensitized ID8agg to αPD-L1”. In addition, in experiment [1] (ID8agg challenge, ascites), the “tumor PD-L1 in vivo” value is reported as “reduced tumor PD-L1 in ascites”. In addition, the “PD-L1^lo ID8agg growth” value in experiment [1] (WT mice, dose and schedule as for ID8agg) is “unable to suppress”. For the same molecule, the “single agent efficacy at the dose used for the combination” value in experiment [1] (mouse, in vivo) is given as “ineffective as a single agent”. The treatment of tumors result in experiment [1] (severely immunodeficient NSG mice, ID8agg) was “effectively treated both”. Also, in experiment [1] (wild type mice, ID8agg), the mouse survival result was “prolonged mouse survival” and the tumor volume entry is “significantly reduced tumor volume”. Further, in experiment [2], the autophagy entry was “promote autophagy” and the mTORC1 signals result was “suppress mTORC1 signals; also recorded: inhibits mTORC1 signaling”. In addition, in experiment [2] (Western blot), the “LC3 lipidation (LC3 I and II)” value is “increased LC3 lipidation”; the “phosphorylation of P70S6K and 4EBP1” value is “reduced phosphorylation of P70S6K and 4EBP1 in a dose-dependent manner”. Moreover, in experiment [3], the “ALDH^hi TIC population” value is recorded as “significantly reduced”. For the same molecule, the “CD44^+CD24^+ TIC population” value in experiment [4] is on record as “significantly reduced”.

Source of the values: US12404332B2, “Methods for diagnosing and treating cancers” (Research Development Foundation, priority 2020, dated 2025).
